19 molecules from patent publication USRE45907E1, “Functionalized stilbene derivatives as improved vascular targeting agents” (OXiGENE, Inc., priority 2001, dated 2016) can be followed below.

Assay [1] has as its system MHEC-5T hemangioendothelioma tumor. In kind it is in vivo. Particulars: 100 mg/kg single i.p. dose, 24 hours post-treatment, SCID mice with MHEC5-T tumor. On the procedure: The vascular effects of the following compounds were assessed in tumor-bearing mice using a fluorescent-bead assay. A MHEC-5T hemangioendothelioma tumor model was established by subcutaneous injection of 0.5×10^6 cultured MHEC5-T cells into the right flank of Fox Chase CB-17 SCID mice and allowed to grow to a size of 300 mm^3 before i.p. injection with a single dose of saline control or compound. At 24 hours post-treatment, mice were i.v. injected with 0.25 ml of diluted FluoSphere beads (1:6 in physiological saline) in the tail vein, and sacrificed after 3 minutes. Tumor cryosections at a thickness of 8 um were directly examined using quantitative fluorescent microscopy. For quantification, image analysis of 3 sections from three tumor treated in each group were examined and vascular shutdown was expressed a vessel area per tissue area (mm^2) in percentage of the control.

In another assay the test system is tubulin. The experiment in a line: Inhibition of tubulin polymerization. Type of assay: biochemical.
Another assay has as its system human cancer cell lines. The experiment in a line: MTT cytotoxicity of combretastatins and prodrugs (Table 1). Type of assay: cell-based.
The format of assay [2] is cell-based. On the procedure:
Exponentially growing were treated with the following compounds for 1 hour and 5 days. Insoluble compounds were formulated in a small amount (0.3%) of DMSO for biological evaluation. Cell viability was determined by the calorimetric MTT assay using 3(4,5-dimethylthiazol-2-yl)-2,5-diphenyl-2H-tetrazolium bromide according to well-established procedures (see Berridge, et al. (1996) for a general protocol of this type of assay).

Where [3] appears, read: 1 h, read-out: MTT Cytotoxicity (IC50) at 1 hour.
The mark [4] stands for this setting: 5 h, read-out: MTT Cytotoxicity (IC50) at 5 hours.
Where [5] appears, read: treated for 1 hour, read-out: IC50 @ 1 h.
Setting [6] is: treated for 5 days, read-out: IC50 @ 5 days.

A word on the IC50: it is the concentration at which inhibition is half-maximal.

Structures can show the parent of a compound that is named as a salt. Where two headings read alike, the source gives them in different places.

Take `COc1cc(/C=C\c2ccc(OC)c(OP(=O)([O-])[O-])c2OC)cc(OC)c1OC.[Na+].[Na+]` [ZSB-27B, 3′-Disodium Phosphate-3,3′,4,4′,5-pentamethoxy-(Z)-stilbene]: the “% Blood Flow Shutdown (100 mg/kg)” value in assay [1] was determined as 41%.

With `COc1ccc(/C=C\c2cc(OC)c(OC)c(OC)c2)cc1OP(=O)(O)O` [CA-4P], the figures for the IC50 with tubulin, in the assay with human cancer cell lines (setting [3]) and in the assay with human cancer cell lines (setting [4]) were greater than 40 µM, 0.8 µM and 0.002 µM, respectively.

For the molecule `COc1cc(/C=C\c2ccc(OC)c(OP(=O)(O)O)c2OP(=O)(O)O)cc(OC)c1OC` [CA-1P], the half-inhibitory concentration (IC50) is greater than 40 µM with tubulin, 3.2 µM with human cancer cell lines (setting [3]) and 0.0046 µM with human cancer cell lines (setting [4]). Moreover, the activity with tubulin result in the assay on tubulin is listed as “not active with tubulin”.

In the case of `COc1ccc(/C=C\c2cc(OC)c(OC)c(OC)c2)cc1O` [CA-4, Combretastatin A-4], the IC50 is […] in the assay with tubulin, 0.1 µM in the assay with human cancer cell lines (setting [3]) and 0.05 µM in the assay with human cancer cell lines (setting [4]).

As to `COc1ccc(/C=C\c2cc(OC)c(OC)c(OC)c2)c(O)c1O` [CA-1, combretastatin A-1], the IC50 with tubulin is 2 to 4 µM; in the assay with human cancer cell lines (setting [3]) it was 10 µM; in the assay on human cancer cell lines (setting [4]), 0.05 µM. In the assay on tubulin, the activity with tubulin result is given as “active with tubulin”.

Consider `COc1cc(/C=C\c2cc(O)c(OC)c([N+](=O)[O-])c2)cc(OC)c1OC` [ZSB-43, 3′-Hydroxy, 5′-Nitro-3,4,4′,5-tetramethoxy-(Z)-stilbene], for which the IC50 in assay [2] (setting [5]) is 8 µM; in assay [2] (setting [6]) it was 1.3 µM.

On to `COc1cc(OP(=O)([O-])[O-])c(/C=C\c2cc(OC)c(OC)c(OC)c2)cc1OP(=O)([O-])[O-].[Na+].[Na+].[Na+].[Na+]` [ZSB-33B, 2′,5′-Tetrasodium Diphosphate-3,4,4′,5-tetramethoxy-(Z)-stilbene], for which the “% Blood Flow Shutdown (100 mg/kg)” value in assay [1] stood at 51%.

In the case of `COc1cc(/C=C\c2cc(OC)c(OC)c(OC)c2)c(I)cc1OP(=O)([O-])[O-].[Na+].[Na+]` [ZSB-29B, 4′-Disodium Phosphate-2′-Iodo-3,4,5,5′-tetramethoxy-(Z)-stilbene], the “% Blood Flow Shutdown (100 mg/kg)” value in assay [1] amounted to 43%.

For `COc1ccc(/C=C\c2cc(OC)c(OC)c(OC)c2)c(F)c1O` [ZSB-41A, 2′-Fluoro-3′-Hydroxy-3,4,4′,5-tetramethoxy-(Z)-stilbene], the IC50 amounted to 8 µM in assay [2] (setting [5]) and 0.015 µM in assay [2] (setting [6]).

Turning to `COc1ccc(/C=C\c2cc(OC)c(OC)c(OC)c2)cc1OP(=O)(O)OC` [Oxi-com209, CA-4P Methyl Ester, Ammonium Salt], the concentration for half-maximal inhibition (IC50) in assay [2] (setting [5]) is 38 µM; in assay [2] (setting [6]), 0.07 µM.

As for `COc1ccc(/C=C\c2cc(OC)c(OC)c(OC)c2)c(N)c1` [ZSB-39B, 2′-Amino-3,4,4′,5-tetramethoxy-(Z)-stilbene], the “% Blood Flow Shutdown (100 mg/kg)” value in assay [1] stood at 50%.

Consider `COc1ccc(/C=C\c2cc(OC)c(OC)c(OC)c2)c(O)c1Br` [ZSB-26A, 2′ Hydroxy-3′-bromo-3,4,4′,5-tetramethoxy-(Z)-stilbene], for which the values for the IC50 in assay [2] (setting [5]) and in assay [2] (setting [6]) were 3.07 µM and 0.016 µM, respectively.

For the molecule “CA4P n-Octyl Ester, Ammonium Salt [Oxi-com210]”, the “% Blood Flow Shutdown (100 mg/kg)” value in assay [1] came to 89%.

Take `COc1ccc(/C=C\c2cc(OC)c(OC)c(OC)c2)cc1OP(=O)(O)OC1CCCCC1` [Oxi-com191, CA4P Cyclohexane Ester, Ammonium Salt]: the IC50 is 35 µM in assay [2] (setting [5]) and 0.13 µM in assay [2] (setting [6]).

As for `COc1ccc(/C=C\c2cc(OC)c(OC)c(OC)c2)c(NC(=O)C(N)CO)c1` (centres unmarked) [ZSB-45, 2′serinamide-3,4,4′,5-tetramethoxy-(Z)-stilbene], the IC50 in assay [2] (setting [5]) worked out at 10 µM; in assay [2] (setting [6]) it was 0.05 µM. The “% Blood Flow Shutdown (100 mg/kg)” value in assay [1] was found to be 43%.

On to `COc1ccc(/C=C\c2cc(OC)c(OC)c(OC)c2)c(N)c1N` [ZSB-3B, 2′,3′-Damino-3,4,4′,5-tetramethoxy-(Z)-stilbene], for which the half-inhibitory concentration (IC50) in assay [2] (setting [5]) was 2.4 µM; in assay [2] (setting [6]) it was 0.0043 µM.

On to `COc1ccc(/C=C\c2cc(OC)c(OC)c(OC)c2)c(O)c1` [ZSB-46A, 2′-Hydroxy-3,4,4′,5-tetramethoxy-(Z)-stilbene], for which the 50% inhibitory concentration (IC50) amounted to 43 µM in assay [2] (setting [5]) and 0.068 µM in assay [2] (setting [6]).

`COc1ccc(/C=C\c2cc(OC)c(OC)c(OC)c2)c(Br)c1O` [ZSB-16, 2′-Bromo-3′-Hydroxy-3,4,4′,5-tetramethoxy-(Z)-stilbene]: the figures for the half-inhibitory concentration (IC50) in assay [2] (setting [5]) and in assay [2] (setting [6]) were 2 µM and 0.0067 µM, respectively.

With “3′,5′-Tetrasodium Phosphate-3,4,4′,5-tetramethoxy-(Z)-stilbene [ZSB-2B]”, the IC50 in assay [2] (setting [5]) came to 25 µM; in assay [2] (setting [6]), 1 µM. Moreover, in assay [1], the “% Blood Flow Shutdown (100 mg/kg)” value came out at 65%.
